PMC9854712 (Antioxidants, 2023)

Columns and labels:
AChE = biological target: T1, AChE (Rattus norvegicus, UniProt P37136); test: AChE inhibition by Ellman's method (rat frontal cortex homogenate); format: biochemical
T1 construct: from tissue; host or cells: frontal cortex of male Wistar rats (crude homogenate)
T1 sequence (P37136 32-614): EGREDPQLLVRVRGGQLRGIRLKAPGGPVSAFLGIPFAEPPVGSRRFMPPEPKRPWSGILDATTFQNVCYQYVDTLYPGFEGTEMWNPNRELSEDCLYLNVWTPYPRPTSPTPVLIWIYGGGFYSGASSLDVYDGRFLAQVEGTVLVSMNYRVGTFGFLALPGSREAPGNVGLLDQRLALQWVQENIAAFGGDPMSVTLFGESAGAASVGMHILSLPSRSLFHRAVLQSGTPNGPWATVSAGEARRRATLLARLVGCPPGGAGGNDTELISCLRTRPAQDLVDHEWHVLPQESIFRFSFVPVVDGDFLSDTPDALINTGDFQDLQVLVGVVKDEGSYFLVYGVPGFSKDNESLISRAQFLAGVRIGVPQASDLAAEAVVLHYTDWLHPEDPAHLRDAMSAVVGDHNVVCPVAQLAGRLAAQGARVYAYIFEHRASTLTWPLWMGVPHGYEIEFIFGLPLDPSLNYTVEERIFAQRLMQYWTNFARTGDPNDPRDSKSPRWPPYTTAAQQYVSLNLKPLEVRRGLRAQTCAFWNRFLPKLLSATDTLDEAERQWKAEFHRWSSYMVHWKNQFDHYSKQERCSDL
Experimental: Frontal cortex tissue obtained from male Wistar rats was homogenized in 39 volumes of 75 mM sodium phosphate buffer (pH 7.4). A mixture of 260 μL containing the compounds assessed, acetylthiocholine iodide and 5 μL tissue homogenate was incubated for 8 min. The reaction was then terminated by adding 50 μL 3% (w/v) sodium dodecyl sulphate followed by 50 μL 0.2% (w/v) 5,5′-dithio-bis(2-nitrobenzoic) acid to produce the yellow anion of 5-thio-2-nitro-benzoic-acid. The extent of the color production was measured spectrophotometrically at 405 nm using Multiskan Ex (Thermo Electron Corporation). […] Results are expressed as the mean ± SD and each experiment was repeated three times.

[1] = tested on: panel of 60 human tumor cell lines; test: NCI-60 analysis (One-Dose and Five-Dose), whole panel; format: cell-based; details: 48 h; for GI50: Homo sapiens, Five-Dose assay, 60 cell lines; for mean growth percent: One Dose (10 µM), 60 cancer cell lines
Experimental: (§1) Compounds 14a and 17a were submitted to the Developmental Therapeutics Program (DTP) of National Cancer Institute (NCI). Cytotoxicity activity was evaluated by performing One-Dose screening (10^−5 M) against a panel of 60 human tumor cell lines. […] Cells grew in the RPMI 1640 medium containing 5% fetal bovine serum and 2 mM L-glutamine and were inoculated into 96-well microtiter plates in 100 μL at plating densities ranging from 5.000 to 40.000 cells/well. The microtiter plates inoculated with cells were incubated at 37 °C, in 5% humidified CO2 for 24 h prior to addition of experimental drugs. Then, experimental drugs were added, and the microtiter plates were incubated for 48 h. The protocol is available on https://dtp.cancer.gov/discovery_development/nci-60/methodology.htm accessed on 31 December 2022.

[2] = tested on: melanoma and ovarian cancer cell lines; test: NCI-60 Five-Dose assay, melanoma and ovarian lines; format: cell-based, human
Experimental: as §1, with “Cytotoxicity activity was evaluated by performing One-Dose screening (10^−5 M) against a panel of 60 human tumor cell lines.” left out

BEAS-2B cells = test: MTT cell viability assay, BEAS-2B (non-tumorigenic); format: cell-based; details: Homo sapiens, 48 h, nonmalignant bronchial epithelium
Experimental: (§2) The cell lines were obtained from the American Type Culture Collection (ATCC). Five tumor cell lines (MDA-MB-231, MCF-7, HCT116, HTB-54, and DU-145) and two non-tumorigenic cells (184B5 and BEAS-2B) were grown in RPMI 1640 medium (Gibco), and the HT-29 tumor cell line was grown in McCoy’s medium. Both mediums were supplemented with 10% fetal bovine serum (FBS; Gibco) and 1% antibiotics (10.00 units/mL penicillin and 10.00 μg/mL streptomycin; Gibco). Cells were preserved in tissue culture flasks at 37 °C and 5% CO2. The culture medium was replaced every three days.
(§3) The effect of each compound on cell viability was tested using the MTT assay. […] Selected compounds were then tested at seven different concentrations (0.5–100 μM) in MCF-7, HCT116, HT-29, HTB-54, 184B5 and BEAS-2B cells. Cells were seeded at 10^4 per well onto flat-bottomed 96-well culture plates. They were treated with either DMSO or increasing concentration of the corresponding compound for 48 h. Then, they were incubated with 20 μL of 3-(4,5-dimethylthiazol-2-yl)-2,5-diphenyltetrazolium bromide (MTT) (2 mg /mL stock; Aldrich) for 2,5 h and analyzed for their ability to generate a purple formazan dye. These formazan crystals were dissolved in 50 μL of DMSO. The absorbance was measured at a wavelength of 550 nm and the ratio of viable cells was calculated.
(§4) Results are expressed as cell viability % at 10 μM. Selectivity index were calculated as the ratio of the IC50 values determined for the non-malignant and the tumor cells in breast (IC50 (184B5)/IC50 (MCF-7)) and lung (IC50 (BEAS-2B)/IC50 (HTB-54)) cell lines. Data were obtained from at least three independent experiments performed in triplicates.

OVCAR-8 (ovarian) = test: NCI-60 Five-Dose assay, OVCAR-8; format: cell-based; details: Homo sapiens, 48 h
Experimental: as §1

SK-MEL-5 (melanoma) = test: NCI-60 Five-Dose assay, SK-MEL-5; format: cell-based; details: Homo sapiens, 48 h
Experimental: as §1, with “Cytotoxicity activity was evaluated by performing One-Dose screening (10^−5 M) against a panel of 60 human tumor cell lines.” left out

MCF-7 cells = test: MTT cell viability assay, MCF-7; format: cell-based; details: for IC50: Homo sapiens, MCF7, MTT, 48 h; for SI (breast): IC50 (184B5)/IC50 (MCF-7)
Experimental: as §2, §3, §4

184B5 cells = test: MTT cell viability assay, 184B5 (non-tumorigenic); format: cell-based; details: Homo sapiens, 48 h, nonmalignant mammary gland
Experimental: as §2, §3, §4

SNB-19 (CNS) = test: NCI-60 Five-Dose assay, SNB-19; format: cell-based; details: Homo sapiens, 48 h
Experimental: as §1, with “Cytotoxicity activity was evaluated by performing One-Dose screening (10^−5 M) against a panel of 60 human tumor cell lines.” left out

OVCAR-3 (ovarian) = test: NCI-60 Five-Dose assay, OVCAR-3; format: cell-based; details: Homo sapiens, 48 h
Experimental: as §1

HCT116 cells = test: MTT cell viability assay, HCT116; format: cell-based; details: Homo sapiens, HCT-116, 48 h
Experimental: as §2, §3, §4

DU-145 cells = test: MTT cell viability assay, DU-145; format: cell-based; details: Homo sapiens, DU-145, 48 h, read-out: Cell growth % at 10 µM, DU-145
Experimental: as §2, §3, §4

| Structure (SMILES) | inhibition at 1 µM (AChE; at 10^−6 M, Ellman's method) [%] | GI50 [1] [µM] | mean growth percent [1] | LD50 [2] | IC50 (BEAS-2B cells) [µM] | GI50 (OVCAR-8 (ovarian)) [µM] | GI50 (SK-MEL-5 (melanoma)) [µM] | IC50 (MCF-7 cells) [µM] | SI (breast) (MCF-7 cells) | IC50 (184B5 cells) [µM] | GI50 (SNB-19 (CNS)) [µM] | GI50 (OVCAR-3 (ovarian)) [µM] | IC50 (HCT116 cells) [µM] | viability at 10 µM (DU-145 cells) [%] | IC50 (AChE) [µM] | % AChE Inhibition (AChE; at 10^−6 M, Ellman's method) [%] |
| --- | --- | --- | --- | --- | --- | --- | --- | --- | --- | --- | --- | --- | --- | --- | --- | --- |
| C=CC[Se]C(=O)Cc1c(C)n(C(=O)c2ccc(Cl)cc2)c2ccc(OC)cc12 [Compound 17a, Se-allyl 2-[1-(4-chlorobenzoyl)-5-methoxy-2-methyl-1H-indol-3-yl]ethaneselenoate] | 19.2 ± 8.3 | 1.74 | −26.70 | below 9.2 µM | 6.3 ± 2.3 | 1.7 | 1.7 | 9.8 ± 0.3 | 1.4 | 13.3 ± 3.9 | 0.66 | 1.8 | 7 ± 0.9 | 16.3 ± 8.4 | – | – |
| C=CC[Se]C(=O)c1ccccc1OC(C)=O [Compound 14a, 2-(allylselanylcarbonyl)phenylacetate] | 43.5 | 1.79 | −5.89 | below 9.2 µM | 7.1 ± 2.4 | 1.5 | 1.9 | 9.9 ± 0.9 | 1.0 | 10.2 ± 0.1 | 0.49 | 1.9 | 5.9 ± 0.8 | 16.9 ± 8.6 | 0.9 ± 0.2 | 43.5 ± 2.6 |
